According to the supplement of paper PMC6045584:
± gives the standard deviation of the averaged measurements.

Legend:
MK0752 = compound: O=C(O)CC[C@H]1CC[C@@](c2cc(F)ccc2F)(S(=O)(=O)c2ccc(Cl)cc2)CC1 [MK0752]; assay: surviving fraction relative to DMSO-only wells; higher = less growth inhibition; conditions: exposure time: 5 days
How it was run: (§1)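 Tumour cell lines were grown to log phase and seeded at 250–500 cells per well in 384-well plates. They were exposed continuously to inhibitors at 0.5, 1, 5, 10, 50, 100, 500 and 1000 nM for five days, beginning 24 hours after seeding. Surviving fraction is CellTiter-Glo luminescence normalised to the median of DMSO-only wells.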

[1] = compound: Cc1nc(Nc2n[nH]c3c2CN(C(=O)N[C@H](CN(C)C)c2ccccc2)C3(C)C)c2sccc2n1; assay: as above; conditions: exposure time: 5 days
How it was run: as §1

| Test System | surviving fraction (MK0752; 0.5 nM) | surviving fraction (MK0752; 1 nM) | surviving fraction (MK0752; 5 nM) | surviving fraction (MK0752; 10 nM) | surviving fraction (MK0752; 50 nM) | surviving fraction (MK0752; 100 nM) | surviving fraction (MK0752; 500 nM) | surviving fraction (MK0752; 1000 nM) | surviving fraction ([1]; 0.5 nM) | surviving fraction ([1]; 1 nM) | surviving fraction ([1]; 5 nM) | surviving fraction ([1]; 10 nM) | surviving fraction ([1]; 50 nM) | surviving fraction ([1]; 100 nM) | surviving fraction ([1]; 500 nM) | surviving fraction ([1]; 1000 nM) |
| --- | --- | --- | --- | --- | --- | --- | --- | --- | --- | --- | --- | --- | --- | --- | --- | --- |
| HUO3N1 BONE | 1.02 ± 0.023 | 1.03 ± 0.021 | 1.051 ± 0.0083 | 1.08 ± 0.042 | 1.07 ± 0.042 | 1.08 ± 0.052 | 1.01 ± 0.02 | 0.9563 ± 0.0042 | 0.971 ± 0.018 | 0.942 ± 0.034 | 0.853 ± 0.011 | 0.781 ± 0.024 | 0.683 ± 0.015 | 0.625 ± 0.038 | 0.462 ± 0.029 | 0.407 ± 0.0059 |
| CAL72 BONE | 1.04 ± 0.025 | 1.1 ± 0.043 | 1.084 ± 0.0046 | 1.09 ± 0.021 | 1.11 ± 0.018 | 1.14 ± 0.034 | 1.102 ± 0.011 | 1.12 ± 0.04 | 1.04 ± 0.066 | 0.993 ± 0.032 | 0.691 ± 0.061 | 0.556 ± 0.058 | 0.435 ± 0.025 | 0.399 ± 0.011 | 0.194 ± 0.023 | 0.0947 ± 0.0081 |
| LNCAP PROSTATE | 0.936 ± 0.14 | 0.927 ± 0.12 | 1.03 ± 0.26 | 0.887 ± 0.09 | 1.01 ± 0.098 | 1.02 ± 0.074 | 1.04 ± 0.21 | 1.01 ± 0.12 | 0.773 ± 0.021 | 0.632 ± 0.054 | 0.215 ± 0.0067 | 0.196 ± 0.019 | 0.098 ± 0.017 | 0.097 ± 0.012 | 0.0357 ± 0.0032 | 0.0227 ± 0.0029 |
| G292 BONE | 0.974 ± 0.015 | 1.03 ± 0.053 | 1.05 ± 0.033 | 1.05 ± 0.013 | 1.01 ± 0.018 | 0.989 ± 0.019 | 0.914 ± 0.037 | 0.86 ± 0.037 | 0.782 ± 0.028 | 0.642 ± 0.029 | 0.42 ± 0.0074 | 0.376 ± 0.004 | 0.324 ± 0.014 | 0.287 ± 0.012 | 0.166 ± 0.0052 | 0.0753 ± 0.0032 |
| SCC003 HEADNECK | 1.19 ± 0.02 | 1.12 ± 0.15 | 1.14 ± 0.045 | 1.13 ± 0.055 | 1.19 ± 0.12 | 1.24 ± 0.11 | 1.19 ± 0.13 | 1.2 ± 0.039 | 0.993 ± 0.094 | 1.05 ± 0.094 | 0.61 ± 0.043 | 0.418 ± 0.022 | 0.278 ± 0.029 | 0.275 ± 0.028 | 0.227 ± 0.021 | 0.183 ± 0.012 |
| C33A CERVIX | 1.12 ± 0.13 | 1.11 ± 0.08 | 1.06 ± 0.14 | 1.19 ± 0.083 | 1.09 ± 0.066 | 1.19 ± 0.18 | 1.08 ± 0.16 | 1.13 ± 0.1 | 0.67 ± 0.035 | 0.62 ± 0.016 | 0.298 ± 0.049 | 0.26 ± 0.024 | 0.221 ± 0.011 | 0.214 ± 0.024 | 0.146 ± 0.0049 | 0.0663 ± 0.009 |
